Reference: US10010534B2, “Intravenous formulation and LC/MS/MS analysis method for GMC1” (THE BOARD OF REGENTS OF THE UNIVERSITY OF TEXAS SYSTEM, priority 2016, dated 2018)
Values after ≈ are worked out from the molar mass of the structure shown. Where two headings read alike, the source gives them in different places.

What was measured:
[1] = Short-term (bench-top) stability of GMC1 plasma and urine samples; assay type: physicochemical, rat; settings: read-out: Mean Recovery ± SD, short-term stability; for recovery at 2 h: bench-top 2 h; for recovery at 4 h: bench-top 4 h; for recovery at 6 h: bench-top 6 h
Procedure: The short-term (bench-top) stability of GMC1 plasma and urine samples was evaluated by analyzing three sets each of GMC1 plasma and urine samples freshly prepared and placed on the bench-top for 2, 4, and 6 h, respectively. All the samples were compared with freshly prepared samples of the same concentration.

[2] = Freeze-thaw cycle stability of GMC1 plasma and urine samples; assay type: physicochemical, rat; settings: read-out: Mean Recovery ± SD, freeze-thaw cycle stability
Procedure: The freeze-thaw cycle stability of GMC1 plasma and urine samples was evaluated by comparing QC plasma and urine samples exposed to three cycles of freeze (at −80° C.) and thaw (room temperature) to freshly prepared QC samples at the same concentration. Average recoveries from freeze-thawed plasma samples were 106±5.9%, 98.5±3.7% and 94.1±2.9% for GMC1 concentrations of 10, 200 and 400 ng/mL respectively. Average recovery from urine samples were 113±8.9%, 101±3.9%, and 86.6±7.5% for 10, 200 and 400 ng/mL GMC1 concentrations respectively.

[3] = Processed sample (on-instrument or auto-sampler) stability; assay type: physicochemical; settings: rat
Procedure: The stability of processed samples (on-instrument or auto-sampler stability) was also evaluated by comparing freshly prepared plasma and urine QC samples to samples placed on the auto-sampler for 2, 4, and 6 h respectively. One set of the plasma and urine QC samples was extracted with methanol containing IS, and another set with pure methanol without IS.

[4] = Solubility of GMC1 in selected solvents by the shaker method; assay type: physicochemical; settings: thermodynamic from solid, read-out: Mean Solubility ± SD
Procedure: Solubility information in various solvents is important in developing a suitable intravenous formulation of GMC1 for preclinical and clinical studies. The solubility of GMC1 in water, ethanol, polyethylene glycol 300 and 400, propylene glycol monocapryrate type I (Capyrol 90®), dimethyl sulfoxide (DMSO), dimethyl acetamide (DMA), Tween 80®, Labrasol®, Labrafac®, soybean oil, and oleic acid were determined by the shaker method. Briefly, excess amount of GMC1 was added to each of the selected solvents in a scintillation vial and shook using a reciprocating shaker at room temperature for 72 h. The samples were centrifuged at 14,000 rpm for 10 min and subsequently filtered through a 0.22 μm filtration unit, the resulting filtrate analyzed by LC/MS/MS to determine the GMC1 dissolved in the solvents. The study was conducted in triplicate.

[5] = Water-octanol partition co-efficient (log P), shaker method; assay type: physicochemical
Procedure: The water-octanol partition co-efficient (log P) of GMC1, a measure of how hydrophilic (“water-loving”) or hydrophobic (“water-fearing”) GMC1 is, was also evaluated using the shaker method.

[6] = Pharmacokinetic study of the GMC1 co-solvent formulation, IV bolus; assay type: in vivo, male Sprague Dawley rats; settings: rat, single 2 mg/kg IV bolus, three compartment model; for half-life / Vd: iv, 2 mg/kg
Procedure: Pharmacokinetic Studies of the GMC1 Co-Solvent Formulation. Pharmacokinetic study, which elucidates the fate of GMC1 in living systems, was performed. The pharmacokinetic study also verifies the applicability of the LC/MS/MS assay method and the formulation. A rat model was employed and male Sprague Dawley rats were selected as an animal model based on the similarity to humans in metabolism. Four male Sprague Dawley rats (body weight: 300-350 g) were cannulated through the jugular vein under anesthesia (using a cocktail of ketamine:acepromazine:xylazine at a ratio of 50:3.3:3.3 mg/kg). On the following day, the optimal co-solvent formulation of GMC1 (consisting of Labrasol® 50:50 PEG 300, and GMC1 10 mg/mL) was diluted ten times in normal saline to 1 mg/mL. Each rat was administered a 2 mg/kg IV bolus dose of GMC1. Heparinized blood samples were withdrawn from each rat at 5, 10, 15, 30, 60, 120, 240, 480, 720, 1440, 2880, 3240 min after injection. The blood samples were centrifuged at 14,000 rpm for 6 min and the supernatant plasma obtained and stored at −80° C. until analysis. Urine samples were also collected at 0, 60, 240, 480, 720, and 1440 min. The plasma and urine samples were analyzed (within 7 days) using the LC/MS/MS method described herein to obtain the concentration of GMC1.
The pharmacokinetic parameters for each rat were determined with Phoenix WinNonlin 6.3 software (Pharsight Corporation, Mountain View, Calif., USA) using a three compartment, which best described the fit for the IV bolus administration of GMC1, based on the observed and predicted fits of the plasma concentration versus time plot, the reduction in the sums of squares, and the Akaike's information criterion (AIC) for comparing compartmental models (Yamaoka et al., Journal of Pharmacokinetics and Biopharmaceutics 1978, 6(2):165-75). The three-compartment model is described by the equation: Ct=A·e^−αt+B·e^−βt+C·e^−γt where A, B and C are the coefficients, α, β, and γ are alpha, beta and gamma phase rate constants respectively, and Ct is the plasma concentration of GMC1 at time, t.
The weighting scheme of concentration^−2 (Y^−2) was used to determine the model that best fits the individual profiles.

[7] = system: 22Rv1 prostate cancer cell; test: 22Rv1 prostate cancer cell proliferation; assay type: cell-based
[8] = system: androgen receptor (AR); settings: variety of cell lines; cited from earlier work
[9] = system: glucocorticoid receptor (GR); settings: variety of cell lines; cited from earlier work
[10] = processed plasma sample (methanol extract), plasma extracted with methanol containing IS, read-out: Mean Recovery ± SD, auto-sampler stability, With IS
[11] = processed plasma sample (methanol extract), plasma extracted with pure methanol, read-out: Mean Recovery ± SD, auto-sampler stability, No IS
[12] = processed urine sample (methanol extract), urine extracted with methanol containing IS, read-out: Mean Recovery ± SD, auto-sampler stability, With IS
[13] = processed urine sample (methanol extract), urine extracted with pure methanol, read-out: Mean Recovery ± SD, auto-sampler stability, No IS

- recovery at 2 h ([1]; rat plasma): 97.4 ± 8.89%
- recovery at 4 h ([1]; rat plasma): 88.9 ± 2.63%
- recovery at 6 h ([1]; rat plasma): 80.1 ± 5.71%
- recovery at 2 h ([1]; rat urine): 94.2 ± 4.66%
- recovery at 4 h ([1]; rat urine): 93.9 ± 0.76%
- recovery at 6 h ([1]; rat urine): 93.7 ± 1.23%
- recovery at 10 ng/mL ([2]; rat plasma, three cycles −80° C./room temperature): 106 ± 5.9%
- recovery at 200 ng/mL ([2]; rat plasma, three cycles): 98.5 ± 3.7%
- recovery at 400 ng/mL ([2]; rat plasma, three cycles): 94.1 ± 2.9%
- recovery at 10 ng/mL ([2]; rat urine, three cycles): 113 ± 8.9%
- recovery at 200 ng/mL ([2]; rat urine, three cycles): 101 ± 3.9%
- recovery at 400 ng/mL ([2]; rat urine, three cycles): 86.6 ± 7.5%
- recovery at 2 h [3, 10]: 89.9 ± 4.7%
- recovery at 4 h [3, 10]: 97.5 ± 1.5%
- recovery at 6 h [3, 10]: 96.2 ± 5.6%
- recovery at 2 h [3, 11]: 94.7 ± 7.9%
- recovery at 4 h [3, 11]: 99.7 ± 4.5%
- recovery at 6 h [3, 11]: 98.4 ± 6.2%
- recovery at 2 h [3, 12]: 96.4 ± 2.8%
- recovery at 4 h [3, 12]: 98.5 ± 1.1%
- recovery at 6 h [3, 12]: 97.1 ± 4.8%
- recovery at 2 h [3, 13]: 96.1 ± 2.4%
- recovery at 4 h [3, 13]: 89.7 ± 8.8%
- recovery at 6 h [3, 13]: 95.2 ± 2.2%
- solubility at 72 h ([4]; DMSO, organic solvent or mixture, DMSO, room temperature): ≥ 100 mg/mL
- solubility at 72 h ([4]; Labrafac, oil or lipid, Labrafac, room temperature): 1.2 ± 0.01 mg/mL (≈ 3.53 mM)
- solubility at 72 h ([4]; Labrasol, aqueous with cosolvent or surfactant or cyclodextrin, Labrasol, room temperature): 36.4 ± 2.9 mg/mL (≈ 107 mM)
- solubility at 72 h ([4]; PEG 300, organic solvent or mixture, PEG 300, room temperature): 36.6 ± 1.12 mg/mL (≈ 108 mM)
- solubility at 72 h ([4]; PEG 400, organic solvent or mixture, PEG 400, room temperature): 35.7 ± 1.41 mg/mL (≈ 105 mM)
- solubility at 72 h ([4]; Tween 80, aqueous with cosolvent or surfactant or cyclodextrin, Tween 80, room temperature): 20.3 ± 5.39 mg/mL (≈ 59.6 mM)
- solubility at 72 h ([4]; dimethyl acetamide, organic solvent or mixture, Dimethyl acetamide, room temperature): ≥ 100 mg/mL
- solubility at 72 h ([4]; ethanol, organic solvent or mixture, Ethanol, room temperature): 6.3 ± 0.29 mg/mL (≈ 18.5 mM)
- solubility at 72 h ([4]; oleic acid, oil or lipid, Oleic Acid, room temperature): 2.2 ± 0.02 mg/mL (≈ 6.46 mM)
- solubility at 72 h ([4]; soybean oil, oil or lipid, Soy bean oil, room temperature): 1.1 ± 0.02 mg/mL (≈ 3.23 mM)
- logP [5]: 3.48 ± 0.03
- AUC(0-inf) ([6]; male, Sprague Dawley, plasma): 3900 ng·h/mL
- Cmax ([6]; male, Sprague Dawley, plasma): 7640 ± 1980 ng/mL
- clearance ([6]; male, Sprague Dawley, plasma, read-out: Cl (total body clearance)): 8.9 ± 1.66 mL/min/kg
- half-life ([6]; male, Sprague Dawley, plasma, read-out: T1/2α (distribution half-life of α-phase)): 0.11 ± 0.036 h
- half-life ([6]; male, Sprague Dawley, plasma, read-out: T1/2β (elimination half-life of β-phase)): 1.23 ± 0.42 h
- half-life ([6]; male, Sprague Dawley, plasma, read-out: T1/2γ (elimination half-life of γ-phase)): 19.7 ± 5.09 h
- Vd ([6]; male, Sprague Dawley, plasma, read-out: V1 (volume of distribution of central compartment)): 0.278 ± 0.0642 L/kg
- Vd ([6]; male, Sprague Dawley, plasma, read-out: Vss (volume of distribution at steady state)): 7.73 ± 1.22 L/kg
- A (coefficient of α-phase) [6]: 6528.9 ± 1996.01 ng/mL
- B (coefficient of β-phase) [6]: 1038.5 ± 546.09 ng/mL
- C (coefficient of γ-phase) [6]: 75.1 ± 20.24 ng/mL
- V2 (volume of distribution of first peripheral compartment) [6]: 0.5595 ± 0.20603 L/kg
- V3 (volume of distribution of second peripheral compartment) [6]: 6.8665 ± 1.11754 L/kg
SMILES: COc1ccc(/C=N/NC(=O)CSc2nc3ccccc3[nH]2)cc1 [GMC1]
- concentration range inhibiting cell proliferation [7]: low micromolar
- concentration range inhibiting receptor activity [8]: low to mid micro-molar
- concentration range inhibiting receptor activity [9]: low to mid micro-molar
